Patent US20090270394A1, “CYCLYLAMINE DERIVATIVES AS CALCIUM CHANNEL BLOCKERS” (priority 2008, published 2009)

Target: T1, Human Cav2.2 channels (Homo sapiens, UniProt Q00975)
T1 construct: expressed in transfected cells
Assay: Fluorescent assay for Cav2.2 channels using potassium depolarization to initiate channel opening
Assay type: cell-based
Settings: for inhibition at 10 µM: 10 μM compound, read-out: Cav 2.2 Activity % Inh at 10 μM; for inhibition at 30 µM: 30 μM compound, read-out: Cav 2.2 Activity % Inh at 30 μM; for IC50: 30 mM K (block of open and inactivated channels), read-out: Cav 2.2 Activity IC50 at 30 mM K
Description: Human Cav2.2 channels were stably expressed in HEK293 cells along with alpha2-delta and beta subunits of voltage-gated calcium channels. An inwardly rectifying potassium channel (Kir2.3) was also expressed in these cells to allow more precise control of the cell membrane potential by extracellular potassium concentration. At low bath potassium concentration, the membrane potential is relatively negative, and is depolarized as the bath potassium concentration is raised. In this way, the bath potassium concentration can be used to regulate the voltage-dependent conformations of the channels. […] After the incubation period, Cav2.2 channel opening is triggered by addition of higher concentration of potassium (70 mM final concentration) to further depolarize the cell. The degree of state-dependent block can be estimated from the inhibitory potency of compounds after incubation in different potassium concentrations.
Calcium influx through Cav2.2 channels is determined using a calcium sensitive fluorescent dye in combination with a fluorescent plate reader. Fluorescent changes were measured with either a VIPR (Aurora Instruments) or FLIPR (Molecular Devices) plate reader.
• 1. Seed cells in Poly-D-Lysine Coated 96 or 384-well plate and keep in a 37° C.-10% CO2 incubator overnight • 2. […] Incubate in the dark at 25° C. for 60-70 min • 5. Remove dye, wash cells with 0.1 mL (96-well plate) or 0.06 mL (384-well plate) of 4, 12, 25, or 30 mM Potassium Pre-polarization Buffer (PPB) • 6. […] Incubate in the dark at 25° C. for 30 min • 8. Read cell plate on VIPR instrument, Excitation=480 nm, Emission=535 nm • 9. With VIPR continuously reading, add 0.1 mL (96-well plate) or 0.03 mL (384-well plate) of Depolarization Buffer (DB), which is 2× the final assay concentration, to the cell plate.

T1 sequence (Q00975 whole entry): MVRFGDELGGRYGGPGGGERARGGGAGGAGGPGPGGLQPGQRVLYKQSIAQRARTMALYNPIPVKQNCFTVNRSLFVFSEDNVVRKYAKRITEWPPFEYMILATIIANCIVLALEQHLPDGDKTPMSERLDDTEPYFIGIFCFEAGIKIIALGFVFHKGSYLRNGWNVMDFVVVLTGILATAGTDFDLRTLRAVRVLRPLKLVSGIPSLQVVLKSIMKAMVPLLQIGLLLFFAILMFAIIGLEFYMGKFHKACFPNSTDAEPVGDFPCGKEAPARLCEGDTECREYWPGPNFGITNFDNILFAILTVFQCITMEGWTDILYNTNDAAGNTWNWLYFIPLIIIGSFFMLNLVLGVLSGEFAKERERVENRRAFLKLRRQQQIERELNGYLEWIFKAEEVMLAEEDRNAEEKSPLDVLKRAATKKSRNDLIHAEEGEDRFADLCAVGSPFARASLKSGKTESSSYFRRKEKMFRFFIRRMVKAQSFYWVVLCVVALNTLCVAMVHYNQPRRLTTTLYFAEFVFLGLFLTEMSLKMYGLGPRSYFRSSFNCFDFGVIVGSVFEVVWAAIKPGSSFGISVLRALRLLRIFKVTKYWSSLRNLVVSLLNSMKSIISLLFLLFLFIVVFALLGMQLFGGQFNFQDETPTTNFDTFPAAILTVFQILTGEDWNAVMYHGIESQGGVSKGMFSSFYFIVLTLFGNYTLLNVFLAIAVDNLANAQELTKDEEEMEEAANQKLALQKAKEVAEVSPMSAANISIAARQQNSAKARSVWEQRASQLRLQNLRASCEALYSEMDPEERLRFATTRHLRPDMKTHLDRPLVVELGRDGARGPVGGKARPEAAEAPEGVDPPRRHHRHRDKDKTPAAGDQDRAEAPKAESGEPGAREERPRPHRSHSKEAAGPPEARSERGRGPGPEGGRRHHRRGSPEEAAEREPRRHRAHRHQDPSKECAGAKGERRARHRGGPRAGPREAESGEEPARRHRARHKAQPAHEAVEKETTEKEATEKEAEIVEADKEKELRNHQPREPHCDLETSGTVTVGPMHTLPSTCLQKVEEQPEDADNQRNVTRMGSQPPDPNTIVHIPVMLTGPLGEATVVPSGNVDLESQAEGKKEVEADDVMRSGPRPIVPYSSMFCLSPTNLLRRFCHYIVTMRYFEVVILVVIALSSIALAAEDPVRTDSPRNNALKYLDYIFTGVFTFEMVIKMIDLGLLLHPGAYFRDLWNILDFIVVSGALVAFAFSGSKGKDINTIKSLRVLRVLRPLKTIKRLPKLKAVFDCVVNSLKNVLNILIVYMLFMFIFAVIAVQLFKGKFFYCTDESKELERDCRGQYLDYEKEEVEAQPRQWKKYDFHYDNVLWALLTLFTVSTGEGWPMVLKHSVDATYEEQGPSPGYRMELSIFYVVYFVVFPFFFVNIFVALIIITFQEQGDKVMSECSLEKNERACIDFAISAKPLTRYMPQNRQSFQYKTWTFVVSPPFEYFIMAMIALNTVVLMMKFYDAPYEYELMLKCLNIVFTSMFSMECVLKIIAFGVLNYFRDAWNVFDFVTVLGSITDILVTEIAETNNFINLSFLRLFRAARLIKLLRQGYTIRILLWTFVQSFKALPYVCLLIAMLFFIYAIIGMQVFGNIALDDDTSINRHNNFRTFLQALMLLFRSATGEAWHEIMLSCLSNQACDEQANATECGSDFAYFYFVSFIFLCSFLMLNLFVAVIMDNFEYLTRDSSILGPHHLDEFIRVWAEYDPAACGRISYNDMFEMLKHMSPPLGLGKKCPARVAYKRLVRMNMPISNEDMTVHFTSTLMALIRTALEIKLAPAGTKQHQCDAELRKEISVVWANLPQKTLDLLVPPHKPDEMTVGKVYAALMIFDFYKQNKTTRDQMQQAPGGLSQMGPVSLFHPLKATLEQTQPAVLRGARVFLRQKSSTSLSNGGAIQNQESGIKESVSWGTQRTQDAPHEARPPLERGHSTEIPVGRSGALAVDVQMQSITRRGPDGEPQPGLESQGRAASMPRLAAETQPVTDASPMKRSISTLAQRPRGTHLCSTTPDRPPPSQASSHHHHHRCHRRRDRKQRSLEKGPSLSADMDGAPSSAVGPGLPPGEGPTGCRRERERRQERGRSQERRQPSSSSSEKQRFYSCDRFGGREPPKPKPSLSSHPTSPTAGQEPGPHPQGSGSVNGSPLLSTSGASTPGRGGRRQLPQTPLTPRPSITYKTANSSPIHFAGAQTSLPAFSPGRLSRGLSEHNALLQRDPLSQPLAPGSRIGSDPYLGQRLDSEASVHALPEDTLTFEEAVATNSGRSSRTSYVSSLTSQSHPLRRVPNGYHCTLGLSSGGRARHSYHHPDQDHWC
T1 sequence (P54289 25-1103 partner): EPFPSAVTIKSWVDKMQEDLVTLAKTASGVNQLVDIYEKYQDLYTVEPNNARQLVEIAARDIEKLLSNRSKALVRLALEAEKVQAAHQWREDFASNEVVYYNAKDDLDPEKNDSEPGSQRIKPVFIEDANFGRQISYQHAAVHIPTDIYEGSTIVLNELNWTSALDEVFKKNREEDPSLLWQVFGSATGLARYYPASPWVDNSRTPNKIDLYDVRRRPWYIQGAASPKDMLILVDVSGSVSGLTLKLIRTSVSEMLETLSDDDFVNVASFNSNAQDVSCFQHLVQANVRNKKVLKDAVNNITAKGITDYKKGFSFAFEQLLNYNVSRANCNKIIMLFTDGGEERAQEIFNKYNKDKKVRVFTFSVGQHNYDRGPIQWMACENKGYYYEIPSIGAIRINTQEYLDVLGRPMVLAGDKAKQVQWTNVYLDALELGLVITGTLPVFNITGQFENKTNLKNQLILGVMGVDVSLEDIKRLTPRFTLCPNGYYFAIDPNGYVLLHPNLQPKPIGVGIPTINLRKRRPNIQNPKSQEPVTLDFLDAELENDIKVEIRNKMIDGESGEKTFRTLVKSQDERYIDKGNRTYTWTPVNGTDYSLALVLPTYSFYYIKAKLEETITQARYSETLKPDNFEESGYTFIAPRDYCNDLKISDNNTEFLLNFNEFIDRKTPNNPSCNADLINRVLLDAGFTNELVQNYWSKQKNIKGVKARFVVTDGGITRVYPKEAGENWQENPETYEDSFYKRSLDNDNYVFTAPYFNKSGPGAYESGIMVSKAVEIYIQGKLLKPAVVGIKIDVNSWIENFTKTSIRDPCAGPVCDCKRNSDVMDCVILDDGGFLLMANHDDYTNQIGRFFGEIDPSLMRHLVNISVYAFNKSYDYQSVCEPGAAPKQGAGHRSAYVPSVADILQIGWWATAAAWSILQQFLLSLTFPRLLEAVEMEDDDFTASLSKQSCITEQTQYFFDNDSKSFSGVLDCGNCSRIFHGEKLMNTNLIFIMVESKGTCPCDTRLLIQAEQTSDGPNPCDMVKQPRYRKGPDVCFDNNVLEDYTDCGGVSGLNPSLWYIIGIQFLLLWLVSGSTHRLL
T1 sequence (P54284 whole entry partner): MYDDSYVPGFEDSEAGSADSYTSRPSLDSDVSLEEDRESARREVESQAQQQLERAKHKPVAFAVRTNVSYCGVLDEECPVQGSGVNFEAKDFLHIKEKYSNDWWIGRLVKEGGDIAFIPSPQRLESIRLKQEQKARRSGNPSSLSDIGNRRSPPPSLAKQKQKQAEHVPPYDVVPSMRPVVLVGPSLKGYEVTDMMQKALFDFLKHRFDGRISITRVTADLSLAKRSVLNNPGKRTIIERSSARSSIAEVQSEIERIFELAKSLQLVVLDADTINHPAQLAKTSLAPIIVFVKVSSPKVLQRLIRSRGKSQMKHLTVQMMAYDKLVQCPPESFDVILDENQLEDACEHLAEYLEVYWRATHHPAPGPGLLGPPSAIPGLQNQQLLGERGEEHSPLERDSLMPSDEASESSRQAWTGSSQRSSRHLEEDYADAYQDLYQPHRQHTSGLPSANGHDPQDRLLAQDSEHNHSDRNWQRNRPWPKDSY

| Structure (SMILES) | inhibition at 10 µM | inhibition at 30 µM | IC50 |
| --- | --- | --- | --- |
| CC(C)(C)c1cc(C(=O)NC2(C(=O)NCc3ccccc3)Cc3ccccc3C2)cc(C(C)(C)C)n1 [Compound 52, N-(2-(benzylcarbamoyl)-2,3-dihydro-1H-inden-2-yl)-2,6-di-tert-butylisonicotinamide] | 82.2% | 91.3% | 893 nM |
| COc1ccc(CNC(=O)C2(NC(=O)c3cc(C(C)(C)C)c(O)c(C(C)(C)C)c3)CC2)cc1 [Compound 109, 3,5-di-tert-butyl-4-hydroxy-N-(1-(4-methoxybenzylcarbamoyl)cyclopropyl)benzamide] | 29.8% | 40% | 87.7 nM |
| CC(C)(C)c1cc(C(=O)NC2(C(=O)NCCCN3CCOCC3)CCCCC2)cc(C(C)(C)C)c1 [Compound 102, 3,5-di-tert-butyl-N-(1-(3-morpholinopropylcarbamoyl)cyclohexyl)benzamide] | – | – | 253 nM |
| CC(C)(C)c1cc(C(=O)NC2(C(=O)N3CCCC3)CCCC2)cc(C(C)(C)C)n1 [Compound 92, 2,6-di-tert-butyl-N-(1-(pyrrolidine-1-carbonyl)cyclopentyl)isonicotinamide] | 89.5% | 92.2% | 225 nM |
| CC(C)(C)c1cc(NC(=O)C2(NCc3ccc(F)cc3F)CCCCC2)cc(C(C)(C)C)c1 [Compound 42, N-(3,5-di-tert-butylphenyl)-1-(2,4-difluorobenzylamino)cyclohexanecarboxamide] | 70.6% | 80.2% | – |
| CC(C)(C)c1cc(C(=O)NC2(C(=O)NCc3ccccc3)CCCCC2)cc(C(C)(C)C)c1O [Compound 65, N-(1-(benzylcarbamoyl)cyclohexyl)-3,5-di-tert-butyl-4-hydroxybenzamide] | 104% | 107% | 123 nM |
| CC(C)(C)c1cc(NC(=O)C2(NCc3ccccc3)CCCCC2)cc(C(C)(C)C)c1 [Compound 43, 1-(benzylamino)-N-(3,5-di-tert-butylphenyl)cyclohexanecarboxamide] | 76.2% | 82.5% | – |
| Cc1cnc(CNC(=O)C2(NC(=O)c3cc(C(C)(C)C)nc(C(C)(C)C)c3)CCCCC2)cn1 [Compound 81, 2,6-di-tert-butyl-N-(1-((5-methylpyrazin-2-yl)methylcarbamoyl)cyclohexyl)isonicotinamide] | 87.8% | 93.3% | 53.5 nM |
| CC(C)(C)c1cc(C(=O)NC2(C(=O)Nc3cccc(C(F)(F)F)c3)CCOCC2)ccn1 [Compound 120, 2-tert-butyl-N-(4-(3-(trifluoromethyl)phenylcarbamoyl)tetrahydro-2H-pyran-4-yl)isonicotinamide] | 61.2% | – | – |
| CNC(=O)C1(NC(=O)c2cc(C(C)(C)C)nc(C(C)(C)C)c2)CCCCC1 [Compound 101, 2,6-di-tert-butyl-N-(1-(methylcarbamoyl)cyclohexyl)isonicotinamide] | – | – | 105 nM |
| COc1c(C(C)(C)C)cc(C(=O)NC2(C(=O)NCc3cnc(C)cn3)CCCCC2)cc1C(C)(C)C [Compound 88, 3,5-di-tert-butyl-4-methoxy-N-(1-((5-methylpyrazin-2-yl)methylcarbamoyl)cyclohexyl)benzamide] | 96.3% | 96.7% | 14.2 nM |
| CC(C)(C)NC(=O)C(C)(C)c1cc(C(=O)NC2(C(=O)NCc3cccc(C(F)(F)F)c3)CCCCC2)cc(C(C)(C)C(=O)NC(C)(C)C)c1 [Compound 76, 2,2′-(5-(1-(3-(trifluoromethyl)benzylcarbamoyl)cyclohexylcarbamoyl)-1,3-phenylene)bis(N-tert-butyl-2-methylpropanamide)] | 80.5% | 87.8% | – |
| Cc1cc(CNC(=O)C2(NC(=O)c3cc(C(C)(C)C)nc(C(C)(C)C)c3)CCCCC2)no1 [Compound 79, 2,6-di-tert-butyl-N-(1-((5-methylisoxazol-3-yl)methylcarbamoyl)cyclohexyl)isonicotinamide] | 97.8% | 101% | 43.3 nM |
| COc1ccc(CNC(=O)C2(NC(=O)c3cc(C(C)(C)C)cc(C(C)(C)C)c3)CCCCC2)cc1 [Compound 45, 3,5-di-tert-butyl-N-(1-(4-methoxybenzylcarbamoyl)cyclohexyl)benzamide] | 95.7% | 99.5% | 25.2 nM |
| CC(C)(C)c1cc(C(=O)NC2(C(=O)NCc3nccs3)CC2)cc(C(C)(C)C)n1 [Compound 10, 2,6-di-tert-butyl-N-(1-(thiazol-2-ylmethylcarbamoyl)cyclopropyl)isonicotinamide] | 95.7% | 101% | 184 nM |
| CC(C)(C)c1cc(C(=O)NC2(C(=O)NCc3ccc(CN4CCOCC4)cc3)CCOCC2)cc(C(C)(C)C)n1 [Compound 24, 2,6-di-tert-butyl-N-(4-(4-(morpholinomethyl)benzylcarbamoyl)tetrahydro-2H-pyran-4-yl)isonicotinamide] | 79.2% | – | 767 nM |
| CC(C)(C)c1cc(C(=O)NC2(C(=O)NCc3ccc(S(C)(=O)=O)cc3)CCCCC2)cc(C(C)(C)C)n1 [Compound 106, 2,6-di-tert-butyl-N-(1-(4-(methylsulfonyl)benzylcarbamoyl)cyclohexyl)isonicotinamide] | – | – | 317 nM |
| Cc1cc(CNC(=O)C2(NC(=O)c3cc(C(C)(C)C)cc(C(C)(C)C)c3)CCCCC2)nn1C [Compound 68, 3,5-di-tert-butyl-N-(1-((1,5-dimethyl-1H-pyrazol-3-yl)methylcarbamoyl)cyclohexyl)benzamide] | 98.4% | 94% | 64.9 nM |
| CC(C)(C)c1cc(C(=O)NC2(C(=O)N3CCOCC3)CCCCC2)cc(C(C)(C)C)n1 [Compound 98, 2,6-di-tert-butyl-N-(1-(morpholine-4-carbonyl)cyclohexyl)isonicotinamide] | – | – | 248 nM |
| CC(C)(C)c1cc(C(=O)NC2(C(=O)Nc3ccccn3)CC2)cc(C(C)(C)C)c1O [Compound 4, 3,5-di-tert-butyl-4-hydroxy-N-(1-(pyridin-2-ylcarbamoyl)cyclopropyl)benzamide] | 68% | 76% | 355 nM |
| COc1c(C(C)(C)C)cc(C(=O)NC2(C(=O)NCCCN3CCOCC3)CCCCC2)cc1C(C)(C)C [Compound 105, 3,5-di-tert-butyl-4-methoxy-N-(1-(3-morpholinopropylcarbamoyl)cyclohexyl)benzamide] | – | – | 704 nM |
| COc1c(C(C)(C)C)cc(CNC2(C(=O)NCc3ccccc3)CCCCC2)cc1C(C)(C)C [Compound 72, N-benzyl-1-(3,5-di-tert-butyl-4-methoxybenzylamino)cyclohexanecarboxamide] | 97.8% | 97.4% | 145 nM |
| CC(C)(C)c1cc(C(=O)NC2(C(=O)Nc3ccccn3)CC2)cc(C(C)(C)C)n1 [Compound 20, 2,6-di-tert-butyl-N-(1-(pyridin-2-ylcarbamoyl)cyclopropyl)isonicotinamide] | 100% | – | 102 nM |
| CC(C)(C)c1cc(C(=O)NC2(C(=O)Nc3ccccc3)CCCCC2)cc(C(C)(C)C)c1O [Compound 111, 3,5-di-tert-butyl-4-hydroxy-N-(1-(phenylcarbamoyl)cyclohexyl)benzamide] | 71.8% | 106% | 551 nM |
